Assay results: patent publication US10857209B2, “Lysosomal acid lipase and PPAR gamma ligands as immune therapies for cancer treatment” (Indiana University Research and Technology Corporation, priority 2016, dated 2020)

T1: PPARγ (Mus musculus, UniProt P37238)
T1 construct: host or cells: lal-/- mice (lung)
T1 sequence (P37238 1-505): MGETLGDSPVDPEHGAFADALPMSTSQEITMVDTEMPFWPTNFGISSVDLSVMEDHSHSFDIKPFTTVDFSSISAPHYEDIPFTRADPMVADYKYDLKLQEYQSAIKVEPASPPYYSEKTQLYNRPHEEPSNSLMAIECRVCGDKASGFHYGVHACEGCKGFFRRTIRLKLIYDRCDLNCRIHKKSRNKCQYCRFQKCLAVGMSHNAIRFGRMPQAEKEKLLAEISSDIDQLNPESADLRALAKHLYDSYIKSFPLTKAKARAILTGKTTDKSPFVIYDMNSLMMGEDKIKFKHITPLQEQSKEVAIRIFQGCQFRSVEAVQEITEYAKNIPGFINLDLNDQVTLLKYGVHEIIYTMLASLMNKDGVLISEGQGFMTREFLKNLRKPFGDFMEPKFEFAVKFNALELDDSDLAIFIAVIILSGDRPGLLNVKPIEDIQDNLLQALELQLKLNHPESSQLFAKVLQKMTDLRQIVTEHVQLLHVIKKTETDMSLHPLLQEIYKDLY

B1: hLAL: human lysosomal acid lipase expressed from a doxycycline-controlled tissue-specific transgene in lal−/− mice; never administered as a protein (protein)
chain: GPKPVVFLQHGLLADSSNWVTNLANSSLGFILADAGFDVWMGNSRGNTWSRKHKTLSVSQDEFWAFSYDEMAKYDLPASINFILNKTGQEQVYYVGHSQGTTIGFIAFSQIPELAKRIKMFFALGPVASVAFCTSPMAKLGRLPDHLIKDLFGDKEFLPQSAFLKWLGTHVCTHVILKELCGNLCFLLCGFNERNLNMSRVDVYTTHSPAGTSVQNMLHWSQAVKFQKFQAFDWGSSAKNYFHYNQSYPPTYNVKDMLVPTAVWSGGHDWLADVYDVNILLTQITNLVFHESIPEWEHLDFIWGLDAPWRLYNKIINLMRKYQ
modifications: left off: small tags and cut ends
notes: human lysosomal acid lipase expressed from a doxycycline-controlled tissue-specific transgene in lal−/− mice; never administered as a protein

Legend:
B16 melanoma cells [1] = test: Mouse tumor growth model, pre-treated MDSCs co-injected subcutaneously with B16 melanoma cells; assay type: in vivo
Protocol: For in vitro PPARγ ligand treatment, 9-HODE (Cayman Chemical Co., Ann Arbor, Mich., USA) was added into the culture medium of MDSCs to a final concentration of 20 μmol/L for 24 or 48 hours. For the study of the effect of PPARγ ligand on the mTOR signaling pathway, bone marrow cells were treated with 9-HODE (20 μmol/L) for 2 hours.
The tumor growth and metastasis model were described in Zhao et al., Oncogene. 2015; 34:1938-48. MDSCs and B16 melanoma cells were collected separately. A pilot study was performed to determine the best ratio between MDSCs and B16 melanoma cells. To test the tumor growth potential, 6×10^5 pre-treated MDSCs and 2×10^5 B16 melanoma cells were mixed, centrifuged and re-suspended in 100 μL PBS, and then injected subcutaneously into the flank region of 3-month old recipient lal^+/+ mice. Tumor volume (length×width^2×π/6) was monitored every week for 4 weeks. To test the metastasis potential, 2×10^6 pre-treated MDSCs and 5×10^5 B16 melanoma cells were mixed and incubated at 37° C., 5% CO2 for 30 minutes. After the incubation, cells were centrifuged, re-suspended, and injected intravenously into 3-month old lal^+/+ mice. Two weeks after the injection, the mice were sacrificed and the lungs were inflated with 4% paraformaldehyde for examination of metastasis.

PPARγ = target: T1, PPARγ; test: T cell numbers in lal−/− mice (data not shown)
B16 melanoma cells [2] = test: In vitro co-culture of pre-treated MDSCs and B16 melanoma cells; assay type: cell-based, mouse; conditions: lal−/− Ly6G+ cells pre-treated 20 μmol/L 24 hours; 72 hours co-culture; vs ethanol
Protocol: Ethanol or 20 μmol/L 9-HODE pre-treated (for 24 hours) MDSCs (5×10^5) and B16 melanoma cells (5×10^3) were mixed, and seeded into a well of 96-well plates in DMEM supplemented with 10% FBS. Seventy-two hours later, unattached MDSCs were removed by washing with PBS, and the number of attached B16 melanoma cells was counted. Morphologically, MDSCs are much smaller than B16 melanoma cells for exclusion.

Ly6G+ MDSCs = test: Transwell assay of MDSC transendothelial migration; assay type: cell-based, mouse; conditions: lal−/− Ly6G+ cells pre-treated 20 μmol/L 48 hours; four hours; vs ethanol
Protocol: Transwell assay was used to determine MDSC transendothelial migration. SVECs were added to the upper chamber of 24-well 8.0-μm-pore Transwell plates (Corning, Corning, N.Y., USA), and incubated at 37° C., 5% CO2 for 48 hours to form an EC monolayer. The supernatant was then removed, and CellTracker™ Green 5-Chloromethylfluorescein Diacetate (CMFDA) (Invitrogen, Grand Island, N.Y., USA)-labeled MDSCs (2×10^4 cells in 200 μL media) were added to the upper well. After 4 hours, transendothelial migration of MDSCs was determined by counting their numbers in the lower chamber under 5 random microscopic fields.

Ly6G+CD11b+ cells = test: ROS level in Ly6G+CD11b+ cells by flow cytometry; assay type: cell-based, mouse; conditions: lal−/− Ly6G+CD11b+ cells; 20 μmol/L, 48 hours
Protocol: The reactive oxygen species (ROS) level and mitochondrial membrane potential in MDSCs was measured by flow cytometry. Briefly, bone marrow cells were first treated with or without 20 μmol/L 9-HODE or ethanol for 2 days. For ROS level detection, cells were harvested, washed, and stained with 2′,7′-dichlorofluorescein diacetate (2 μmol/L, Invitrogen), allophycocyanin cy7-conjugated anti-Ly6G Ab, and phycoerythrin cy7-conjugated anti-CD 11b Ab (eBioscience) at 37° C. for 15 minutes. After PBS wash, the ROS level in Ly6G^+CD11b^+ cells was analyzed using a LSRII machine (BD Biosciences).

[3] = Histology and morphometry of organs in CCSP-Tg/KO mice (lung epithelial hLAL expression); assay type: in vivo, mouse
Source text: Wild-type (lal^+/+) and lal^−/− mice of the FVB/N background were bred in house. CCSP-rtTA/(TetO)7-CMV-hLAL; lal^−/− (CCSP-Tg/KO) triple mice were generated by crossbreeding previously made CCSP-rtTA transgenic mice and (TetO)7-CMV-hLAL transgenic mice into lal^−/− mice. This triple transgenic mouse model is lung AT II epithelial cells-specific Tet-on expression of wild-type human LAL (hLAL) in lal^−/− mice under the control of the CCSP promoter. All scientific protocols involving the use of animals were approved by the Institutional Animal Care and Use Committee of Indiana University School of Medicine and followed guidelines established by the Panel on Euthanasia of the American Veterinary Medical Association. Animals were housed under Institutional Animal Care and Use Committee-approved conditions in a secured animal facility at Indiana University School of Medicine.
The lungs were harvested and fixed with 4% paraformaldehyde in PBS at 4° C. overnight. After embedding in paraffin, tissue sections were cut to 5 μm thick. Hematoxylin and eosin (H&E) staining was performed by the Histological Core Facility, Department of Pathology and Laboratory Medicine, Indiana University. […] Images were analyzed by Nikon NIS Elements imaging software. […] The alveoli were assessed by area, diameter and perimeter using the integrated morphometry analysis tool. […]

Row | Molecule | tumor size vs ethanol-treated lal−/− Ly6G+ cells (B16 melanoma cells [1]; C57BL/6 Ly6G+ cells into C57BL/6 mice, 7, 14 and 21 days post-injection) | tumor volume (B16 melanoma cells [1]; lal−/− Ly6G+ cells pre-treated 20 μmol/L 24 hours, co-injected s.c. with B16 cells into lal+/+ FVB/N mice, one week after injection, ethanol control 77.6±16.4) [mm^3] | decreased T cell numbers in lal−/− mice (PPARγ) | proliferation of B16 melanoma cells upon co-culture (B16 melanoma cells [2]) | Ly6G+ cells migrated across endothelial monolayer (Ly6G+ MDSCs) | ROS production (Ly6G+CD11b+ cells) | liver and spleen pathology ([3]; doxycycline-treated vs untreated CCSP-Tg/KO mice) | lung damage (emphysema, alveolar area, diameter, perimeter) ([3]; lung epithelial expression, doxycycline-treated CCSP-Tg/KO mice)
1 | 9-hydroxyoctadecadienoic acid [9-HODE] | significantly smaller | 36.3±12.4 | reversed | significantly decreased proliferation of B16 melanoma cells | less Ly6G^+ cells in the lower chamber | suppressed the increased ROS production | – | –
2 | B1 | – | – | – | – | – | – | no improvement in the liver and spleen | partially restored
